“Also recorded” adds a separate entry of the source. Read-outs that look alike come from different tables or passages of the source.
What was measured:
[1] = system: A549 (non-small cell lung); experiment: Antiproliferative SBR assay (NCI protocol), A549; assay type: cell-based, human; details: Homo sapiens, A549; 48 h exposure, n = 3, mean ± SD
From the text: (§1) The latter two represent multidrug-resistant cell lines.

[2] = system: HBL-100 (breast); experiment: Antiproliferative SBR assay (NCI protocol), HBL-100; assay type: cell-based, human; details: Homo sapiens, HBL-100; 48 h exposure, n = 3, mean ± SD
From the text: as §1

[3] = system: HeLa (cervix); experiment: Antiproliferative SBR assay (NCI protocol), HeLa; assay type: cell-based, human; details: Homo sapiens, HeLa; 48 h exposure, n = 3, mean ± SD
From the text: as §1

[4] = system: T-47D (breast); experiment: Antiproliferative SBR assay (NCI protocol), T-47D; assay type: cell-based, human; details: Homo sapiens, T47D; 48 h exposure, n = 3, mean ± SD; multidrug-resistant line
From the text: as §1

[5] = system: WiDr (colon); experiment: Antiproliferative SBR assay (NCI protocol), WiDr; assay type: cell-based, human; details: Homo sapiens, WiDr; 48 h exposure, n = 3, mean ± SD; multidrug-resistant line
From the text: as §1

[6] = system: A549, HBL-100, HeLa, SW1573, T-47D, WiDr; experiment: Antiproliferative SBR assay, panel of six tumor cell lines (summary statements); assay type: cell-based; details: Homo sapiens
From the text: as §1

[7] = system: SW1573 cells; experiment: Label-free continuous live cell imaging (holotomographic 3D microscopy); assay type: cell-based, human; details: 20 μM, 20 h
Method: Live imaging allows researchers to observe progressive cytostatic effects or cell death of treated cells, enabling the identification of several apoptotic hallmarks. In order to characterize the phenotypic effects of the compounds 4a and 5b on cancer cells, the evolution of the culture was monitored every 3 min using label-free holotomographic 3D microscopy. SW1573 cells were exposed to 4a and 5b at a concentration of 20 μM for 20 h (Supplementary Material, videos S1–S3). Untreated SW1573 cells (control) moved freely and divided throughout the experimental time frame.
The CX-A imaging platform microscope (Nanolive SA, Lausanne, Switzerland) was used to measure refractive indices, creating a holotomographic 3D image of the cells. SW1573 cells were seeded onto 35 mm cell culture imaging dishes (IBIDI GmbH, Gräfelfing, Germany) at a density of 50.000 cells/well. On the next day, treated cells were exposed to the test compounds right before the acquisition of the images. Image data were transferred to FIJI software v2.9.0 (NIH, USA) for image analysis. EVE software v2.2.1.2162 (Nanolive S.A., Tolochenaz, Switzerland)) was used for the analysis of the refractive indices and calculation of the phenotypic parameters.

[8] = system: SW1573 (non-small cell lung)
Method: The potential antiproliferative activity of sulfonamides synthesized in this study was evaluated in vitro using the SBR assay, following the US NCI protocol. A panel of six tumor cell lines was employed: A549 (non-small cell lung), HBL-100 (breast), HeLa (cervix), SW1573 (non-small cell lung), T-47D (breast), and WiDr (colon). The latter two represent multidrug-resistant cell lines.
Cells were maintained in culture in 60 mm cell culture dishes in growth medium (10 mL) and passaged twice weekly.
The antiproliferative activity of compounds was tested using our implementation of the protocol of the National Cancer Institute (NCI) of the USA. The following seeding densities (cells per well) were used: 2500 (A549, HBL-100, HeLa, and SW1573) and 5000 (T-47D and WiDr). Stock solutions of inhibitors (40 mM) were prepared in pure DMSO (400 times the maximum test concentration).

[9] = Metal complexation assay by UV-Vis spectroscopy; assay type: physicochemical; details: DMSO, 25 °C
Method: The ability of 5b, as a model compound, to complex metal cations associated with tumorigenesis (Na^+, K^+, Fe^2+, Fe^3+, Zn^2+, and Cu^2+) was analyzed using UV–Vis spectroscopy. To investigate this, UV–Vis spectra of solutions with varying ratios of 5b to metal chlorides (1:0, 4:1, 2:1, 1:1, 1:2, 1:5) were recorded. Additionally, a 1:2 ligand-to-metal spectrum was obtained after 72 h of incubation to account for potential slow complexation. […] For ZnCl2, only a weak effect was observed after incubation, and no significant changes were detected without incubation, regardless of the ligand-to-Zn^2+ ratio (Figure 6C).
The complexation of 5b with different metal chlorides (NaCl, KCl, FeCl2, FeCl3, ZnCl2, and CuCl2) was investigated using UV–Vis spectroscopy (Jasco V-360). The stock solutions of the salts (10^−2 M) and the ligand (2.5 mM) were prepared in pure DMSO and sonicated when necessary. To 20 µL of a 2.5 mM solution of 5b were added different aliquots of the metal chlorides solutions up to a total volume of 2 mL in quartz cuvettes. The following ligand–metal ratios were used: 1:0.25, 1:0.5, 1:1, 1:2, 1:5, and 1:10. The absorbance was monitored at 25 °C in the range 280–440 nm, either with or without incubation. A blank solution without 5b was also prepared for each concentration of the salt, and its spectrum was subtracted from the ligand–salt spectrum.

[10] = target: human CA I (Homo sapiens, UniProt P00915); experiment: Stopped-flow CO2 hydrase assay, CA I
Chain of human CA I (P00915 whole entry): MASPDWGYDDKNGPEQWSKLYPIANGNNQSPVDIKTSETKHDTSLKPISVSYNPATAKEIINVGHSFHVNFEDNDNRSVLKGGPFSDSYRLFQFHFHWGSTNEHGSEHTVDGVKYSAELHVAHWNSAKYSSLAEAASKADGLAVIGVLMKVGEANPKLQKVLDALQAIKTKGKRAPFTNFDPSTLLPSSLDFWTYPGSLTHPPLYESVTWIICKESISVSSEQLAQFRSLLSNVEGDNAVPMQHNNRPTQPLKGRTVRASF

[11] = target: human CA II (Homo sapiens, UniProt P00918); experiment: Stopped-flow CO2 hydrase assay, CA II
[12] = target: human CA IX (Homo sapiens, UniProt Q16790); experiment: Stopped-flow CO2 hydrase assay, CA IX
[13] = target: human CA XII (Homo sapiens, UniProt O43570); experiment: Stopped-flow CO2 hydrase assay, CA XII
Chain of human CA XII (O43570 25-354): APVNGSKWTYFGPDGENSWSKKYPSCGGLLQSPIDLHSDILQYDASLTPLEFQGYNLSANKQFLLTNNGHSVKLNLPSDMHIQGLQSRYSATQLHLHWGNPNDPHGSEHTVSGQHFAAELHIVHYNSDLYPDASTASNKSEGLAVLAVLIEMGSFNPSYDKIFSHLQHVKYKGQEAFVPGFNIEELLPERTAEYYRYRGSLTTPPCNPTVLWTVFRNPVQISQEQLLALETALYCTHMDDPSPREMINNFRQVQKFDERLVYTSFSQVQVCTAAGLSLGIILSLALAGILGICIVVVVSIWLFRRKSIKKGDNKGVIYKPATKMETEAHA

[14] = range over six tumor cell lines, read-out: GI50 range across all tested cell lines
[15] = read-out: GI50 in five out of six cell lines

Row | Structure (SMILES) | GI50 [1] | GI50 [2] | GI50 [3] | GI50 [4] | GI50 [5] | GI50 [6, 14] | Phenotypic effects on cancer cells [7] | GI50 [8] | GI50 [6, 15] | also measured
1 | NS(=O)(=O)c1ccc(NC(=S)N/N=C/c2ccccc2)cc1 [Compound 4a, 1-Phenylmethylene-4-(4′-sulfonamidophenyl)-3-thiosemicarbazone] | 5.1 ± 3.7 µM | 3 ± 1.6 µM | 2.3 ± 0.2 µM | 2.6 ± 0.1 µM | 4.5 ± 1.4 µM | 2.3 to 5.1 µM | cell division was retarded and apoptotic features were observed in some cells | 2.9 ± 1.4 µM |  | 
2 | NS(=O)(=O)c1ccc(NC(=S)N/N=C/c2ccccn2)cc1 [Compound 5a, 1-(Pyridin-2′-ylmethylene)-4-(4″-sulfonamidophenyl)-3-thiosemicarbazone] | 18 ± 2 µM | 5.2 ± 2.2 µM | 5.2 ± 0.3 µM | 5.7 ± 2.1 µM | 3.8 ± 0.3 µM |  |  | 4.2 ± 0.1 µM | < 10 µM | 
3 | NS(=O)(=O)c1cccc(NC(=S)N/N=C/c2ccccn2)c1 [Compound 5b, 1-(Pyridin-2′-ylmethylene)-4-(3″-sulfonamidophenyl)-3-thiosemicarbazone] | 10 ± 2 µM | 7.8 ± 2 µM | 5.8 ± 0.4 µM | 5.3 ± 0.7 µM | 4.5 ± 0.6 µM | 4.5 to 10 µM | cell division was retarded and apoptotic features were observed in some cells; also recorded: delayed tumor cell division and features indicative of apoptosis | 7.1 ± 0.4 µM | < 10 µM | Chelation of Cu2+ ([9]; CuCl2 titration): efficiently chelated; also recorded: efficient ligand for chelating; also recorded: effective chelation; Chelation of Fe2+ ([9]; FeCl2 titration): efficiently chelated; also recorded: to a lesser extent; also recorded: effective chelation; Chelation of Fe3+ ([9]; FeCl3 titration): efficiently chelated; also recorded: to a lesser extent; Chelation of K+ ([9]; KCl titration): does not chelate; Chelation of Na+ ([9]; NaCl titration): does not chelate; Chelation of Zn2+ ([9]; ZnCl2 titration): notably weaker; Ki [10]: 0.538 µM; Ki [11]: 0.0025 µM; Ki [12]: 0.0049 µM; Selectivity Ratio I/IX ([12]; Ki CA I / Ki CA IX): 109.8; Selectivity Ratio II/IX ([12]; Ki CA II / Ki CA IX): 0.49; Ki [13]: 0.0056 µM; Selectivity Ratio I/XII ([13]; Ki CA I / Ki CA XII): 96.1
